According to ChEMBL document CHEMBL1143344, “Novel DNA-directed alkylating agents: design, synthesis and potent antitumor effect of phenyl N-mustard-9-anilinoacridine conjugates via a carbamate or carbonate linker” (Bioorg Med Chem, 2009):
Activity calls are given as the source filed them. The calls are words filed in the database; no cut-off is given here.

Tests used:
[1] = tested on: CCRF-CEM; assay: Cytotoxicity against human CCRF-CEM cells after 72 hrs by XTT assay; assay type: functional, cell-based
[2] = tested on: CCRF-CEM; assay: Cytotoxicity against vinblastine-resistant human CCRF-CEM cells after 72 hrs by XTT assay; assay type: functional, cell-based
[3] = tested on: CCRF-CEM; assay: Ratio of IC50 for taxol-resistant human CCRF-CEM cells to IC50 for human CCRF-CEM cells; assay type: functional
[4] = tested on: CCRF-CEM; assay: Ratio of IC50 for vinblastine-resistant human CCRF-CEM cells to IC50 for human CCRF-CEM cells; assay type: functional
[5] = tested on: MX1; assay: Cytotoxicity against human MX1 cells after 72 hrs by SRB assay; assay type: functional, cell-based; settings: MX1, 72 h
[6] = tested on: HCT-116; assay: Cytotoxicity against human HCT116 cells after 72 hrs by SRB assay; assay type: functional, cell-based; settings: HCT-116, 72 h
[7] = tested on: MX1; assay: Antitumor activity against human MX1 cells xenografted in athymic nude mouse assessed as total tumor remission at 100 mg/kg, iv administered qd for 6 days measured after 20 days; assay type: functional, organism-based; set-up: dose 100 mg/kg
[8] = tested on: MX1; assay: Antitumor activity against human MX1 cells xenografted in athymic nude mouse assessed as total tumor remission at 100 mg/kg, iv administered qd for 6 days measured after 22 days; assay type: functional, organism-based; set-up: dose 100 mg/kg
[9] = tested on: MX1; assay: Antitumor activity against human MX1 cells xenografted in athymic nude mouse assessed as no tumor relapse at 100 mg/kg, iv administered qd for 6 days measured after 59 days; assay type: functional, organism-based; set-up: dose 100 mg/kg
[10] = tested on: CCRF-CEM; assay: Cytotoxicity against taxol-resistant human CCRF-CEM cells after 72 hrs by XTT assay; assay type: functional, cell-based
[11] = Cytotoxicity against human H1299 cells after 72 hrs by WST1 assay; assay type: functional, cell-based; settings: NCI-H1299, 72 h
[12] = tested on: PC-3; assay: Cytotoxicity against human PC3 cells after 72 hrs by WST1 assay; assay type: functional, cell-based; settings: PC-3, 72 h
[13] = Cytotoxicity against human CL1-0 cells after 72 hrs by WST1 assay; assay type: functional, cell-based; settings: CL1-0, 72 h
[14] = Cytotoxicity against human CL1-5 cells after 72 hrs by WST1 assay; assay type: functional, cell-based; settings: CL1-5, 72 h
[15] = tested on: MCF7; assay: Cytotoxicity against human MCF7 cells after 72 hrs by WST1 assay; assay type: functional, cell-based; settings: MCF7, 72 h
[16] = tested on: MX1; assay: Antitumor activity against human MX1 cells xenografted in athymic nude mouse assessed as total tumor remission at 10 mg/kg, iv administered q2d for 3 days measured after 16 days; assay type: functional, organism-based; set-up: dose 10 mg/kg
[17] = tested on: MX1; assay: Antitumor activity against human MX1 cells xenografted in athymic nude mouse assessed as total tumor remission at 10 mg/kg, iv administered q2d for 3 days measured after 18 days; assay type: functional, organism-based; set-up: dose 10 mg/kg
[18] = tested on: MX1; assay: Antitumor activity against human MX1 cells xenografted in athymic nude mouse assessed as total tumor remission at 10 mg/kg, iv administered q2d for 3 days measured after 20 days; assay type: functional, organism-based; set-up: dose 10 mg/kg
[19] = tested on: MX1; assay: Antitumor activity against human MX1 cells xenografted in athymic nude mouse assessed as total tumor remission at 40 mg/kg, iv administered q2d for 5 days measured after 20 days; assay type: functional, organism-based; set-up: dose 40 mg/kg
[20] = tested on: MX1; assay: Antitumor activity against human MX1 cells xenografted in athymic nude mouse assessed as total tumor remission at 50 mg/kg, iv administered q2d for 5 days measured after 12 days; assay type: functional, organism-based; set-up: dose 50 mg/kg
[21] = tested on: MX1; assay: Antitumor activity against human MX1 cells xenografted in athymic nude mouse assessed as total tumor remission at 50 mg/kg, iv administered q2d for 5 days measured after 20 days; assay type: functional, organism-based; set-up: dose 50 mg/kg
[22] = tested on: MX1; assay: Antitumor activity against human MX1 cells xenografted in athymic nude mouse assessed as no tumor relapse at 50 mg/kg, iv administered q2d for 5 days measured after 129 days; assay type: functional, organism-based; set-up: dose 50 mg/kg
[23] = tested on: HCT-116; assay: Antitumor activity against human HCT116 cells xenografted in athymic nude mouse assessed as tumor growth inhibition at 50 mg/kg, iv administered q2d for 7 days; assay type: functional; set-up: scale not given: the % may be the effect or the level left
[24] = tested on: Mus musculus; assay: Toxicity in athymic nude mouse xenografted with human HCT116 cells assessed as body weight loss at 50 mg/kg, iv administered q2d for 7 days; assay type: organism-based, HCT-116; set-up: dose 50 mg/kg, route intravenous; settings: in vivo, 168 h
[25] = tested on: H1299; assay: Induction of DNA interstrand cross-linking in 20 Gy irradiated human H1299 cells after 1 hr by comet assay; assay type: cell-based
[26] = tested on: H1299; assay: Induction of DNA interstrand cross-linking in 20 Gy irradiated human H1299 cells at 10 uM after 1 hr by comet assay; assay type: cell-based
[27] = tested on: H1299; assay: Induction of DNA interstrand cross-linking in 20 Gy irradiated human H1299 cells at 200 uM after 1 hr by comet assay; assay type: cell-based
[28] = tested on: H1299; assay: Induction of DNA interstrand cross-linking in 20 Gy irradiated human H1299 cells assessed as decrease in DNA migration after 1 hr by comet assay; assay type: cell-based
[29] = Stability in rat plasma assessed as half life at 5 ug/ml after 10 mins by HPLC; assay type: ADME, cell-free
[30] = tested on: MX1; assay: Antitumor activity against human MX1 cells xenografted in athymic nude mouse assessed as total tumor remission at 50 mg/kg, iv administered q2d for 9 days measured after 29 days; assay type: functional, organism-based; set-up: dose 50 mg/kg
[31] = tested on: MX1; assay: Antitumor activity against human MX1 cells xenografted in athymic nude mouse assessed as total tumor remission at 50 mg/kg, iv administered q2d for 9 days measured after 31 days; assay type: functional, organism-based; set-up: dose 50 mg/kg
[32] = tested on: MX1; assay: Antitumor activity against human MX1 cells xenografted in athymic nude mouse assessed as total tumor remission at 50 mg/kg, iv administered q2d for 9 days measured after 33 days; assay type: functional, organism-based; set-up: dose 50 mg/kg
[33] = tested on: MX1; assay: Antitumor activity against human MX1 cells xenografted in athymic nude mouse assessed as total tumor remission at 50 mg/kg, iv administered q2d for 9 days measured after 35 days; assay type: functional, organism-based; set-up: dose 50 mg/kg

| SMILES | IC50 ([1]; read-out: IC50) | IC50 [2] | Ratio IC50 [3] | Ratio IC50 [4] | IC50 [5] | IC50 [6] | IC50 [10] | IC50 [11] | IC50 [12] | IC50 [13] | IC50 [14] | IC50 [15] | further results |
| --- | --- | --- | --- | --- | --- | --- | --- | --- | --- | --- | --- | --- | --- |
| COc1cc(NC(=O)Oc2ccc(N(CCCl)CCCl)cc2)cc(Nc2c3ccccc3nc3ccccc23)c1 | 200 nM | 108 nM | 1.5 | 0.54 | 340 nM | 1710 nM | 309 nM |  |  |  |  |  | Activity [7]: Active; Activity [8]: Active; Activity [9]: Active |
| OCc1cc(Nc2c3ccccc3nc3ccccc23)cc(OCCN(CCCl)CCCl)c1 |  | 34 nM | 1.1 | 4.9 | 3.5 nM |  | 7.5 nM |  |  |  |  |  |  |
| CCOC(=O)Nc1cc(COC(=O)Oc2ccc(N(CCCl)CCCl)cc2)cc(Nc2c3ccccc3nc3ccccc23)c1 | 315 nM | 482 nM | 1.6 | 1.5 | 89 nM | 639 nM | 509 nM | 527 nM | 23.3 µM | 410 nM | 4.56 µM | 19.8 µM | Activity [16]: Active; Activity [17]: Active; Activity [18]: Active |
| Cc1cccc2c(Nc3cc(CO)cc(NC(=O)Oc4ccc(N(CCCl)CCCl)cc4)c3)c3ccccc3nc12 | 67 nM | 127 nM | 1.4 | 1.9 | 84 nM | 438 nM | 97 nM | 457 nM | 5.98 µM | 1870 nM | 12.6 µM | 9.01 µM | Activity [19]: Active |
| CC(C)OC(=O)Nc1cc(COC(=O)Nc2ccc(N(CCCl)CCCl)cc2)cc(Nc2c3ccccc3nc3ccccc23)c1 | 189 nM | 753 nM | 3.4 | 4 | 1130 nM | 301 nM | 648 nM | 9170 nM | 16 µM | 4000 nM | 6.63 µM | 7.01 µM |  |
| COc1ccc(NC(=O)Oc2ccc(N(CCCl)CCCl)cc2)cc1Nc1c2ccccc2nc2c(C)cccc12 | 205 nM | 110 nM | 1 | 0.54 | 338 nM | 841 nM | 210 nM |  |  |  |  |  |  |
| Cc1ccc(Nc2c3ccccc3nc3ccccc23)cc1NC(=O)Oc1ccc(N(CCCl)CCCl)cc1 | 76 nM | 158 nM | 2.8 | 2.1 | 214 nM | 434 nM | 216 nM |  |  |  |  |  |  |
| O=C(Nc1cc(CO)cc(Nc2c3ccccc3nc3ccccc23)c1)Oc1ccc(N(CCCl)CCCl)cc1 | 75 nM | 184 nM | 1.9 | 2.5 | 99 nM | 568 nM | 140 nM | 284 nM | 1.61 µM | 2700 nM | 5.06 µM | 4.8 µM | Activity [20]: Active; Activity [21]: Active; Activity [22]: Active; Activity [23]: 98%; Activity [24]: 8%; Activity [25]: Dose-dependent effect; Activity [26]: 74.2%; Activity [27]: 39.7%; Activity [28]: Dose-dependent effect; half-life at 5 ug/ml [29]: 385 min |
| Nc1cc(CO)cc(Nc2c3ccccc3nc3ccccc23)c1 |  | 1600 nM | 0.8 | 2.7 | 3.5 nM |  | 600 nM |  |  |  |  |  |  |
| CCOC(=O)Nc1cc(COC(=O)Nc2ccc(N(CCCl)CCCl)cc2)cc(Nc2c3ccccc3nc3ccccc23)c1 | 85 nM |  |  |  | 597 nM |  |  |  |  |  |  |  |  |
| COc1ccc(NC(=O)Oc2ccc(N(CCCl)CCCl)cc2)cc1Nc1c2ccccc2nc2ccccc12 | 541 nM | 254 nM | 1.08 |  | 1560 nM | 709 nM | 583 nM |  |  |  |  |  |  |
| Cc1c(NC(=O)Oc2ccc(N(CCCl)CCCl)cc2)cccc1Nc1c2ccccc2nc2c(C)cccc12 | 160 nM | 142 nM | 1.09 | 0.89 | 181 nM | 320 nM | 174 nM |  |  |  |  |  |  |
| CC(=O)O[C@H]1C(=O)[C@@]2(C)[C@H]([C@H](OC(=O)c3ccccc3)[C@]3(O)C[C@H](OC(=O)[C@H](O)[C@@H](NC(=O)c4ccccc4)c4ccccc4)C(C)=C1C3(C)C)[C@]1(OC(C)=O)CO[C@@H]1C[C@@H]2O [PACLITAXEL] |  | 1270 nM | 330 | 980 | 46 nM | 1.1 nM | 429 nM |  |  |  |  |  | IC50 [1]: 3.1 nM |
| COc1ccc(Nc2c3ccccc3nc3ccccc23)cc1NC(=O)Oc1ccc(N(CCCl)CCCl)cc1 | 85 nM | 119 nM | 1.9 | 1.4 | 181 nM | 186 nM | 160 nM |  |  |  |  |  |  |
| Cc1ccc(NC(=O)Oc2ccc(N(CCCl)CCCl)cc2)cc1Nc1c2ccccc2nc2c(C)cccc12 | 132 nM | 93 nM | 1.05 | 0.7 | 163 nM | 263 nM | 138 nM | 623 nM | 4.47 µM | 4660 nM | 10.6 µM | 5.71 µM |  |
| COc1ccc(Nc2c3ccccc3nc3c(C)cccc23)cc1NC(=O)Oc1ccc(N(CCCl)CCCl)cc1 | 24 nM | 190 nM | 1.1 | 7.9 | 138 nM | 238 nM | 27 nM | 357 nM | 1.58 µM | 2250 nM | 8.85 µM | 3.43 µM |  |
| Cc1cccc2c(Nc3cc(COC(=O)Nc4ccc(N(CCCl)CCCl)cc4)cc(NC(=O)OC(C)(C)C)c3)c3ccccc3nc12 | 750 nM | 1420 nM | 4.5 | 1.9 | 5930 nM | 2400 nM | 3360 nM |  |  |  |  |  |  |
| CC[C@]1(O)C[C@@H]2CN(CCc3c([nH]c4ccccc34)[C@@](C(=O)OC)(c3cc4c(cc3OC)N(C)[C@H]3[C@@](O)(C(=O)OC)[C@H](OC(C)=O)[C@]5(CC)C=CCN6CC[C@]43[C@@H]65)C2)C1 [VINBLASTINE] | 0.73 nM | 496 nM | 106.2 | 679.5 | 2.2 nM | 1.1 nM | 78 nM |  |  |  |  |  |  |
| Cc1ccc(Nc2c3ccccc3nc3c(C)cccc23)cc1NC(=O)Oc1ccc(N(CCCl)CCCl)cc1 | 132 nM | 157 nM | 1.3 | 1.2 | 286 nM | 607 nM | 169 nM |  |  |  |  |  | Activity [30]: Active; Activity [31]: Active; Activity [32]: Active; Activity [33]: Active; Activity [23]: 89%; Activity [24]: 8% |
